Results taken from patent US5948791A, “Quinoline derivatives for treating malaria” (Hoffmann-La Roche Inc., priority 1995, dated 1999).
In brackets after ≈: the same amount, converted by molar mass. Structures can show the parent of a compound that is named as a salt. Where two headings read alike, the source gives them in different places.

Key:
Plasmodium berghei = experiment: animal or person; format: in vivo, Plasmodium berghei (strain ANKA) in mice; conditions: for inhibition in vivo at 10 mg/kg: Plasmodium berghei, mice, blood smears 48 h after treatment
How it was run: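 Male albino mice (~25 g) infected i.v. on D0 with P. berghei ANKA (0.2 ml of 10^8 parasitized erythrocytes/ml); single s.c. and p.o. dose 24 h post-infection, 10 mg/kg screen then titration.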

[1] = system: Plasmodium falciparum strain NF54; experiment: Growth inhibition of Plasmodium falciparum NF54 (chloroquine-sensitive) in vitro, [G-3H]-hypoxanthin incorporation; format: cell-based; conditions: chloroquine-sensitive strain NF54, 72 h, read-out: IC50 for P. falciparum NF54
How it was run: (§1)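 Asynchronous intraerythrocytic cultures in human A+ erythrocytes (0.7% parasitemia, 2.5% suspension) in RPMI 1640 with HEPES, NaHCO3 and human serum, exposed to compound titrated over 6-7 steps for 72 h at 37° C, 3% O2. Growth by [G-3H]-hypoxanthin incorporation against untreated controls; IC50 by logit regression.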

Plasmodium falciparum K1 = experiment: Growth inhibition of Plasmodium falciparum K1 (chloroquine-resistant) in vitro, [G-3H]-hypoxanthin incorporation; format: cell-based, Plasmodium falciparum (strain K1); conditions: for IC50: Plasmodium falciparum, K1, 72 h, read-out: IC50 for P. falciparum K1; for Resistance index: ratio of the IC50 for K1 and the IC50 for NF54
How it was run: as §1

[2] = po, single peroral dose of 10 mg/kg, read-out: Growth inhibition in % after po administration (GI%, percentage reduction of the parasitemia)
[3] = sc, single subcutaneous dose of 10 mg/kg, read-out: Growth inhibition in % after sc administration (GI%, percentage reduction of the parasitemia)

SMILES | inhibition in vivo at 10 mg/kg (Plasmodium berghei; [2]) [%] | inhibition in vivo at 10 mg/kg (Plasmodium berghei; [3]) [%] | IC50 [1] [µg/mL] | IC50 (Plasmodium falciparum K1) [µg/mL] | Resistance index (Plasmodium falciparum K1) | Growth inhibition after sc administration: entry "toxic" (Plasmodium berghei; mouse, in vivo, sc, 10 mg/kg)
Clc1ccc2c(N[C@H]3CC[C@@H](NCCCc4ccccc4)CC3)ccnc2c1 [Example 20, cis-N1-(7-Chloro-quinolin-4-yl)-N4-(3-phenyl-propyl)-cyclohexane-1,4-diamine dihydrochloride] | 94 | 98 | 0.0044 | 0.0108 | 2.5 | 
COc1cc(N[C@H]2CC[C@H](Nc3ccnc4cc(Cl)ccc34)CC2)cc(OC)c1.Cl [Example 90, trans-N1-(7-Chloro-quinolin-4-yl)-N4-(3,5-dimethoxy-phenyl)-cyclohexane-1,4-diamine hydrochloride] | 45 | 60 | 0.0497 | 0.0988 | 2.0 | 
COc1cc(CN[C@H]2CC[C@H](Nc3ccnc4cc(Cl)ccc34)CC2)cc(OC)c1OC.Cl.Cl [Example 112, trans-N1-(7-Chloro-quinolin-4-yl)-N4-(3,4,5-trimethoxy-benzyl)-cyclohexane-1,4-diamine dihydrochloride] | 99 | 99.9 | 0.0043 | 0.0172 | 4.0 | 
Cl.Cl.FC(F)(F)c1ccc(CN[C@H]2CCCC[C@@H]2Nc2ccnc3cc(Cl)ccc23)c(C(F)(F)F)c1 [Example 64, (1S,2S)-N1-(7-Chloro-quinolin-4-yl)-N2-(2,4-bis-trifluoromethyl-benzyl)-cyclohexane-1,2-diamine dihydrochloride] | 87 | 66 | 0.0357 | 0.0823 | 2.3 | 
CN(C)c1ccc(CNC(C)(C)CNc2ccnc3cc(Cl)ccc23)cc1.Cl.Cl [Example 45, N1-(7-Chloro-quinolin-4-yl)-N2-(4-dimethylamino-benzyl)-2-methyl-propane-1,2-diamine dihydrochloride] | 98 | 97 | 0.0123 | 0.0125 | 1.0 | 
CC(=O)O.CC(=O)O.CC(C)(CNc1ccnc2cc(Cl)ccc12)NCc1ccccc1O [Example 28, N1-(7-Chloro-quinolin-4-yl)-N2-(2-hydroxybenzyl)-2-methyl-propane-1,2-diamine diacetate] | 79 | 96 | 0.004 | 0.0107 | 2.7 | 
CC(C)(CNc1ccnc2cc(Cl)ccc12)NCc1ccc(-c2ccccc2)cc1 [Example 51, N1-(7-Chloro-quinolin-4-yl)-N2-(bipenyl-4-yl-methyl)-2-methyl-propane-1,2-diamine dihydrochloride] | 82 | 99 | 0.0123 | 0.0091 | 0.7 | 
COc1cccc(OC)c1CN[C@H]1CC[C@@H](Nc2ccnc3cc(Cl)ccc23)CC1.Cl.Cl [Example 16, cis-N1-(7-Chloro-quinolin-4-yl)-N4-(2,6-dimethoxy-benzyl)-cyclohexane-1,4-diamine dihydrochloride] | 99.8 | 99.9 | 0.002 | 0.017 | 8.5 | 
COc1ccc(CN[C@H]2CC[C@H](Nc3ccnc4cc(Cl)ccc34)CC2)c(OC)c1.Cl.Cl [Example 111, trans-N1 (7-Chloro-quinolin-4-yl)-N4-(2,4-dimethoxy-benzyl)-cyclohexane-1,4-diamine dihydrochloride] | 25 | 99.8 | 0.0029 | 0.0104 | 3.6 | 
Cl.Cl.Fc1cccc(F)c1CN[C@H]1CC[C@@H](Nc2ccnc3cc(Cl)ccc23)CC1 [Example 19, cis-N1-(7-Chloro-quinolin-4-yl)-N4-(2,6-difluoro-benzyl)-cyclohexane-1,4-diamine dihydrochloride] | 21 |  | 0.0049 | 0.0143 | 2.9 | toxic
Cl.Cl.Clc1ccc(CCN[C@H]2CC[C@H](Nc3ccnc4cc(Cl)ccc34)CC2)c(Cl)c1 [Example 91, trans-N1-(7-Chloro-quinolin-4-yl)-N4-[2-(2,4-dichloro-phenyl)-ethyl]-cyclohexane-1,4-diamine dihydrochloride] | 88 | 86 | 0.0034 | 0.0109 | 3.2 | 
COc1cc(CCN[C@H]2CC[C@H](Nc3ccnc4cc(Cl)ccc34)CC2)ccc1O.Cl.Cl [Example 104, trans-4-{2-[4-(7-Chloro-quinolin-4-ylamino)-cyclohexylamino]-ethyl}-2-methoxy-phenol dihydrochloride] | 63 | 100 | 0.0036 | 0.0202 | 5.6 | 
Cl.Cl.Clc1ccc2c(N[C@H]3CC[C@@H](NCCc4ccccc4)CC3)ccnc2c1 [Example 13, cis-N1-(7-Chloro-quinolin-4-yl)-N4-phenethyl-cyclohexane-1,4-diamine dihydrochloride] | 99.9 | 99.9 | 0.0027 | 0.0161 | 6.0 | 
COc1ccc(CCN[C@H]2CC[C@H](Nc3ccnc4cc(Cl)ccc34)CC2)cc1.Cl.Cl [Example 92, trans-N1-(7-Chloro-quinolin-4-yl)-N4-[2-(4-methoxy-phenyl)-ethyl]-cyclohexane-1,4-diamine dihydrochloride] | 85 | 99.7 | 0.0022 | 0.008 | 3.6 | 
Cl.Cl.O=[N+]([O-])c1ccc(CN[C@H]2CC[C@@H](Nc3ccnc4cc(Cl)ccc34)CC2)cc1 [Example 84, cis-N1-(7-Chloro-quinolin-4-yl)-N4-(4-nitro-benzyl)-cyclohexane-1,4-diamine dihydrochloride] | 100 | 100 | 0.0069 | 0.0078 | 1.1 | 
CC(C)(CNc1ccnc2cc(Cl)ccc12)NCc1ccc(Cl)c(F)c1.Cl.Cl [Example 27, N1-(7-Chloro-quinolin-4-yl)-N2-(4-chloro-3-fluoro-benzyl)-2-methyl-propane-1,2-diamine dihydrochloride] | 99 | 98 | 0.016 | 0.0233 | 1.5 | 
Cl.Cl.Clc1cccc(CCN[C@H]2CC[C@H](Nc3ccnc4cc(Cl)ccc34)CC2)c1 [Example 96, trans-N1-[2-(3-Chloro-phenyl)-ethyl]-N4-(7-chloro-quinolin-4-yl)-cyclohexane-1,4-diamine dihydrochloride] | 95 | 98 | 0.0016 | 0.009 | 5.6 | 
Cl.Cl.Fc1cccc(F)c1CN[C@H]1CC[C@H](Nc2ccnc3cc(Cl)ccc23)CC1 [Example 114, trans-N1-(7-Chloro-quinolin-4-yl)-N4-(2,6-difluoro-benzyl)-cyclohexane-1,4-diamine dihydrochloride] | 99 | 99.9 | 0.0029 | 0.0084 | 2.9 | 
COc1cc(OC)c(CN[C@H]2CC[C@H](Nc3ccnc4cc(Cl)ccc34)CC2)c(OC)c1.Cl.Cl [Example 108, trans N1-(7-Chloro-quinolin-4-yl)-N4-(2,4,6-trimethoxy-benzyl)-cyclohexane-1,4-diamine dihydrochloride] | 110 | 100 | 0.0046 | 0.0184 | 4.0 | 
CC(C)(CNc1ccnc2cc(Cl)ccc12)NCc1cccc(C#N)c1.Cl.Cl [Example 48, N1-(7-Chloro-quinolin-4-yl)-N2-(3-cyano-benzyl)-2-methyl-propane-1,2-diamine dihydrochloride] | 99.9 | 99.9 | 0.0123 | 0.0159 | 1.3 | 
CC(C)(CNc1ccnc2cc(Cl)ccc12)NCc1ccccn1.Cl.Cl.Cl [Example 56, N1-(7-Chloro-quinolin-4-yl)-N2-(pyridin-2-yl-methyl)-2-methyl-propane-1,2-diamine trihydrochloride] | 98 | 97 | 0.0313 | 0.0537 | 1.7 | 
CC(C)(CNc1ccnc2cc(Cl)ccc12)NCc1ccc(F)c(Cl)c1 [Example 6, N1-(7-Chloro-quinolin-4-yl)-N2-(3-chloro-4-fluoro-benzyl)-2-methyl-propane-1,2-diamine] | 99.7 | 95 | 0.0103 (≈ 0.0263 µM) | 0.0145 (≈ 0.037 µM) | 1.4 | 
